Data as given in ChEMBL document CHEMBL1133327, “4-Thiazolidinones: novel inhibitors of the bacterial enzyme MurB” (Bioorg Med Chem Lett, 2000).

Target: not listed separately
Test: Compound was tested for in vitro inhibitory activity against the bacterial enzyme UDP-N-acetylmuramate dehydrogenase; call rule not given here

| SMILES | IC50 |
| --- | --- |
| CCCC[C@H](C(=O)O)N1C(=O)C(CC(=O)NNc2ccccc2)SC1c1cccc(Oc2ccc(C(C)(C)C)cc2)c1 (stereo partly specified) | 7.7 µM |
| CCCC[C@@H](C(=O)O)N1C(=O)C(C)SC1c1cccc(Oc2ccc(C(C)(C)C)cc2)c1 (stereo partly specified) | 14 µM |

Next, values leading:

| IC50 | SMILES |
| --- | --- |
| 11 µM | CCCC[C@@H](C(=O)O)N1C(=O)C(CC(=O)NNc2ccccc2)SC1c1cccc(Oc2ccc(C(C)(C)C)cc2)c1 (stereo partly specified) |
| 7.7 µM | CCCC[C@H](C(=O)O)N1C(=O)CSC1c1cccc(Oc2ccc(C(C)(C)C)cc2)c1 (stereo partly specified) |
| 28.4 µM | CCCC[C@@H](C(=O)O)N1C(=O)CSC1c1cccc(Oc2ccc(C(C)(C)C)cc2)c1 (stereo partly specified) |
| 10 µM | CCCC[C@H](C(=O)O)N1C(=O)C(C)SC1c1cccc(Oc2ccc(C(C)(C)C)cc2)c1 (single isomer, unassigned) |

Target: T1, UDP-N-acetylenolpyruvoylglucosamine reductase (Escherichia coli K-12, UniProt P08373)
T1 sequence (P08373 whole entry): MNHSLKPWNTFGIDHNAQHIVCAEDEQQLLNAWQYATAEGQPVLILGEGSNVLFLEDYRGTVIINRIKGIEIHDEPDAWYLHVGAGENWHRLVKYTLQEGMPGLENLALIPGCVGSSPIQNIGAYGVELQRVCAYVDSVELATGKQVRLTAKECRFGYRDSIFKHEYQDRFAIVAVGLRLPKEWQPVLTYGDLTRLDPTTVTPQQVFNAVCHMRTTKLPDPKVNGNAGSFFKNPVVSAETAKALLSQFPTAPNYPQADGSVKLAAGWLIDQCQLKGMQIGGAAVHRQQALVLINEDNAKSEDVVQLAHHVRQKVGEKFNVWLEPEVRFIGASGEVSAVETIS
Test: Inhibition of bacterial enzyme UDP-N-acetylmuramate dehydrogenase

| SMILES | IC50 |
| --- | --- |
| CC(C)(C)c1ccc(Oc2cccc(C3SC(CC(=O)NNc4ccccc4)C(=O)N3CC(=O)O)c2)cc1 (stereo unspecified) | Not Active |
| CC1SC(c2cccc(Oc3ccc(C(C)(C)C)cc3)c2)N(CC(=O)O)C1=O (stereo unspecified) | Not Active |
| CC(C)(C)c1ccc(Oc2cccc(C3SCC(=O)N3[C@@H](CO)C(=O)O)c2)cc1 (stereo partly specified) | Not Active |
| CC(C)(C)c1ccc(Oc2cccc(C3SCC(=O)N3CC(=O)O)c2)cc1 (stereo unspecified) | Not Active |
| CC(C)(C)c1ccc(Oc2cccc(C3SC(CC(=O)NNc4ccccc4)C(=O)N3[C@@H](CCCN)C(=O)O)c2)cc1 (stereo partly specified) | Not Active |
| CC(C)(C)c1ccc(Oc2cccc(C3SCC(=O)N3[C@@H](Cc3ccccc3)C(=O)O)c2)cc1 (stereo partly specified) | Not Active |
| CC1SC(c2cccc(Oc3ccc(C(C)(C)C)cc3)c2)N([C@@H](CCCN)C(=O)O)C1=O (stereo partly specified) | Not Active |
| CC1SC(c2cccc(Oc3ccc(C(C)(C)C)cc3)c2)N([C@@H](Cc2ccccc2)C(=O)O)C1=O (stereo partly specified) | Not Active |
| CC(C)(C)c1ccc(Oc2cccc(C3SC(CC(=O)NNc4ccccc4)C(=O)N3[C@@H](CC(=O)O)C(=O)O)c2)cc1 (stereo partly specified) | Not Active |
| CC(C)(C)c1ccc(Oc2cccc(C3SCC(=O)N3[C@@H](CCCN)C(=O)O)c2)cc1 (stereo partly specified) | Not Active |
| CC(C)(C)c1ccc(Oc2cccc(C3SC(CC(=O)NNc4ccccc4)C(=O)N3[C@@H](CO)C(=O)O)c2)cc1 (stereo partly specified) | Not Active |
| CC1SC(c2cccc(Oc3ccc(C(C)(C)C)cc3)c2)N([C@@H](CC(=O)O)C(=O)O)C1=O (stereo partly specified) | Not Active |
| CC1SC(c2cccc(Oc3ccc(C(C)(C)C)cc3)c2)N([C@@H](CO)C(=O)O)C1=O (stereo partly specified) | Not Active |

Continued, values first:

| IC50 | SMILES |
| --- | --- |
| Not Active | CC(C)(C)c1ccc(Oc2cccc(C3SCC(=O)N3[C@@H](CC(=O)O)C(=O)O)c2)cc1 (stereo partly specified) |
| Not Active | CC(C)(C)c1ccc(Oc2cccc(C3SC(CC(=O)NNc4ccccc4)C(=O)N3[C@@H](Cc3ccccc3)C(=O)O)c2)cc1 (stereo partly specified) |
